From patent US8099262B2, “Estimation of clinical cut-offs” (priority 2004, dated 2012) come the findings set out here.

Common to all, as to assay type: in vivo
Assay [1] relates to HIV. Also on record: key to Modelled Lower Cutoff & Confidence Interval / Modelled Upper Cutoff & Confidence Interval: fold change (FC) matching VL drop at 20% and 80% loss of activity. The conditions noted are these: preferred embodiment of linear regression. From the text:
In a preferred embodiment of the linear regression model, more factors are included in order to obtain a more refined prediction of viral load response. These factors include for example a sensitivity score per drug class in addition to the overall sensitivity score of the background treatment (cPSS), previous exposure to the drug (naïve (Yes/No), naïve to PIs, naïve to NRTI's, etc. . . . ). Furthermore, in the preferred embodiment, the fold change is transformed before inserting the figures into the model. The transformation to the fold change comprises a power-transformation ranging from FC^−3 to FC^1. In addition, a quadratic term in cPSS is preferably added.
The NRTI[naïve] value represents whether the patient is naïve to nucleoside RT inhibitors. If yes, value=1, if no, value=0. The PSS[NRTI} represents the phenotypic sensitivity score for NRTIs, i.e the number of active NRTIs in the background regimen for the patient.
Stage 3: Determine Fold change equivalent to VL drop at 20% and 80% loss of activity by inserting values for VL drop into the above equation and calculating FC. […]

Assay [2] relates to HIV. Briefly: Logistic regression model of probability of success/failure as a function of baseline fold change resistance (clinical cut-offs). The conditions noted are these: Definition 2. From the text:
In such a method, Prob of success is preferably calculated by performing a logistic regression analysis using data from a clinical response dataset, wherein Prob of success is modelled according to the following equation: […]
The clinical outcome results (drop in viral load and response rate) were modelled as a function of baseline fold change (FC) as determined by virtual phenotype (see WO01/79540 and WO02/33402; also http://www.vircolab.com). The models applied were linear regression, logistic regression, and a classification tree. These models also took into account effects of the concomitant HIV drugs (PSS), baseline viral load (Baseline Log(V1)i) and, optionally, treatment history in order to avoid bias introduced by imbalances of important characteristics. From the models, a prediction of clinical outcome could be made at different levels of the baseline fold change resistance.
In the logistic regression, the proposed equation was the following: […]
However, by binning the viral load into successes and failures, part of the information of the continuous variable viral load is lost. Estimates are also corrected for covariates as for linear regression.
(§1) The maximum effect was defined as the treatment effect at fold change 1, and the minimum effect was defined as the treatment effect at a very high fold change (i.e. when the curve reached a plateau). The effect range was then the difference between the maximum effect and the minimum effect.
The lower and higher cutoffs are defined as the fold change associated with an expected 20% and 80% decrease respectively of the reference activity of the drug within the regimen.

The test system of assay [3] is HIV. Also on record: Linear Regression Higher CO / Linear Regression Lower CO: unit not given here.
Source text: Databases of studies for patients with tenofovir containing regimens and consisting of patient baseline demographic characteristics, clinical outcome results with viral load and resistance data (Fold change), were retrieved and remapped according to a common structure allowing a meta-analysis. The structure consisted of baseline sequence, viral load data set, viral load measurements and sampling dates (for example viral load within 3 months of starting new regimen and viral load assessment 8 and/or 24 weeks after beginning new regimen), CD4+ data set which contains CD4+ counts and sampling dates, resistance data set containing the fold changes to different antivirals and sampling dates; patient data set with patient information such as age, gender, race, treatment history; treatment data set with drug regimens, start and stop dates, doses, formulations, frequency of intake, regimen changes after resistance tests. The structure of such a clinical data base can be seen in FIG. 1a.
The viral load response data includes censored (<400 copies/ml) values. Parameters of the underlying uncensored distribution were estimated by maximum likelihood estimation in SAS (proc lifereg). The viral load response data are corrected for baseline viral load and cPSS.
The models applied were linear regression, logistic regression, and a classification tree. These models also took into account effects of the concomitant HIV drugs (PSS), baseline viral load (Baseline Log(V1)i) and, optionally, treatment history in order to avoid bias introduced by imbalances of important characteristics. From the models, a prediction of clinical outcome could be made at different levels of the baseline fold change resistance.
In the linear regression model, the proposed equation was the following: LogVL dropi=β0+β1*Baseline Log(V1)i+β2*PSSi+β3*(1/FC)i+ξi where i represented the patient, β0 the intercept, β1, β2 and β3 coefficients indicated the increase in log viral load drop per unit increase of respectively the baseline log VL, the number of sensitive drugs in the background regimen and the inverse of the baseline fold change. ξi was a random error term indicating the deviation of the patient from the value predicted by the model. Interactions between all the factors were evaluated and other baseline characteristics, i.e treatment history, were added if relevant.
When viral load results under the detection limits are obtained, biases could be introduced if the detection limit values are considered when calculating viral load drops and using those in the linear regression model. To avoid this, censoring needed to be taken into account and therefore the PROC LIFEREG facility in the SAS package was employed.
Clinical responses were predicted in the models developed in previous step 2. […] In order to determine the fold changes at which clinically relevant diminished clinical responses can be observed, three definitions of clinical cut-offs were considered:
as §1

Assay [4] concerns HIV. From the text:
Further factors which may be taken into account when validating the model are the odds ratios determined using clinical cutoffs compared to those determined using biological cutoffs. These ratios represent the odds of being a responder in the group that is labeled resistant by the cutoffs divided by the odds of being a responder in the group that is labeled sensitive by the cutoffs. In this way it is possible to evaluate how well the cutoffs perform on a drug by drug basis. The further away that the odds ratio is from 1, the stronger the correlation between the resistance class and clinical outcome. The odds ratio as specified above yield numbers smaller than 1 as the odds of being a responder should be smaller in the higher resistance class. Put another way, the probability of response will decrease as the resistance increases. Additionally, if the odds ratio for the CCO is smaller than the odds ratio for the BCO, it can be concluded that the CCO is stronger correlated with clinical outcome and therefore gives a better prediction than the BCO.
A logistic regression model may be used to determine the odds ratio. The model used is the same as the logistic regression model described above except that the fold change in the model is replaced by the resistance class. The coefficient for the resistance class that is obtained from the model is the log (odds ratio). The advantage of using this model is that the odds ratio estimates can be adjusted for the baseline viral load and the cPSS score of the background regimen.
The columns headed CCO Odds Ratio and BCO Odds Ratio represent the odds of being a responder in the group that is labeled resistance by the cutoffs divided by the odds of being a responder in the group that is labeled sensitive by the cutoffs. For example, if there are four non-responders and one responder in the resistant group, and four responders and two non-responders in the sensitive group, the odds of being a responder in the resistant group is 1:4=0.25 and the odds of being a responder in the sensitive group is 4:2=2. […] The further away that the odds ratio is from 1, the stronger the correlation between the resistance class and clinical outcome.
The separation in groups (resistance/sensitive) can be done based on clinical cutoffs or biological cutoffs. This means that odds ratios based on clinical cutoffs (CCO) and odds ratios based on biological cutoffs (BCO) can be compared. If the odds ratio for the CCO is smaller than the odds ratio for the BCO, it can be concluded that the CCO gives a better prediction than the BCO.
In practice, a logistic regression model is used to determine the odds ratio. The model used is similar to logistic regression model described earlier except that the fold change in the model is replaced by the resistance class. The coefficient for the resistance class that is obtained from the model is the log (odds ratio). The advantage of using this model is that the odds ratio estimates can be adjusted for the baseline viral load and the cPSS score of the background regimen. […] In this case, a larger odds ratio indicates a stronger correlation with clinical outcome.

The mark [5] stands for this setting: Subgroup 1: PSS = 2, baseline Log (VL) = 4.
Setting [6] is: log baseline VL/background PSS of 5/0.
Setting [7] is: Definition 2, Overall (whole population).
The mark [8] stands for this setting: preliminary linear regression analysis, virologic response at 8 weeks.

In the case of Saquinavir/r [SQV/r], in the assay on HIV [1], the “Modelled Lower Cutoff & Confidence Interval” value is 1.1 and the “Modelled Upper Cutoff & Confidence Interval” value turned out to be 12.0. Further, in the assay on HIV [2] (setting [5]), the “Logistic Regression Higher CO” value amounted to 13.2 and the “Logistic Regression Lower CO” value was 1.7. In the assay with HIV [2] (setting [6]), the “lower cutoff, logistic regression” value was 1.7 and the “upper cutoff, logistic regression” value was found to be 12.9. Besides, in the assay on HIV [3] (setting [7]), the “Linear Regression Higher CO” value is reported as 12.3 and the “Linear Regression Lower CO” value turned out to be 1.6. Also, the “VIROLOGIC RESPONSE Baseline FC for 80% REDUCTION of response (upper cutoff)” value with HIV [3] (preliminary linear regression analysis, definition 2) turned out to be 12. In addition, in the assay on HIV [3] (setting [8]), the “VIROLOGIC RESPONSE 20% REDUCTION (fold change, preliminary VirtualPhenotype Clinical Cutoff)” value is recorded as 1.6 and the “VIROLOGIC RESPONSE 80% REDUCTION (fold change, preliminary VirtualPhenotype Clinical Cutoff)” value is on record as 12. Besides, the “Test Data BCO Odds Ratio” value in the assay with HIV [4] (test data, biological cutoffs) is on record as 0.249. For the same substance, in the assay on HIV [4] (test data, clinical cutoffs), the “Test Data CCO Odds Ratio” value is 0.165. The “Validation Data BCO Odds Ratio” value with HIV [4] (validation data, biological cutoffs) was 0.080. Besides, the “Validation Data CCO Odds Ratio” value in the assay on HIV [4] (validation data, clinical cutoffs) was determined as 0.054.
